Reference: patent US20230139445A1, “BACTERIAL CELLS WITH IMPROVED TOLERANCE TO DIACIDS” (priority 2016, published 2023)
Read-outs that look alike come from different tables or passages of the source.

Assays:
[1] = system: Escherichia coli K-12 MG1655; assay: Growth of K-12 MG1655 in varying concentrations of fumaric, itaconic, malic and succinic acid, Growth Profiler; type: cell-based
In short: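 Escherichia coli K-12 MG1655 cultures were grown in M9 medium with 1% glucose and challenged with the dicarboxylic acids, supplied as neutral sodium salts or as free acids neutralized to pH 7.0 with sodium hydroxide. Plates were shaken at 225 rpm and 37° C. in a Growth Profiler, scanned every 15 minutes, and green pixel values were converted to OD600 by calibration.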

[2] = system: Escherichia coli K-12 MG1655 and evolved isolates; type: cell-based; details: 50 g/L succinic acid
In short: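 Wild-type MG1655 and evolved isolates, precultured overnight in M9 + 1% glucose at 37 °C, were diluted into M9 + 1% glucose. Growth at 37 °C, 225 rpm, scanned every 15 min; pixel values calibrated to OD600. Diacids tested as sodium salts or neutralized to pH 7.0.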

**Q.** How did the “μ (mean)” value ([1]; growth rate of K-12 MG1655, 10 g/L diacid (sodium salt)) turn out when O=C(O)CCC(=O)O [succinic acid] was run?
**A.** 0.665 h^1

**Q.** What about the “μ (mean)” value ([1]; growth rate of K-12 MG1655, 20 g/L diacid (sodium salt)) of the same compound?
**A.** 0.610 h^1

**Q.** What about the “μ (mean)” value ([1]; growth rate of K-12 MG1655, 30 g/L diacid (sodium salt)) of the same compound?
**A.** 0.496 h^1

**Q.** And the “μ (mean)” value ([1]; growth rate of K-12 MG1655, 40 g/L diacid (sodium salt))?
**A.** 0.345 h^1

**Q.** What about the “μ (mean)” value ([1]; growth rate of K-12 MG1655, 50 g/L diacid (sodium salt)) of the same compound?
**A.** 0.179 h^1

**Q.** And the “μ (mean)” value ([1]; growth rate of K-12 MG1655, 60 g/L diacid (sodium salt))?
**A.** 0.127 h^1

**Q.** And the “tlag (mean)” value ([1]; lag time of K-12 MG1655, 10 g/L diacid (sodium salt))?
**A.** 5.4 h

**Q.** What about the “tlag (mean)” value ([1]; lag time of K-12 MG1655, 20 g/L diacid (sodium salt)) of the same compound?
**A.** 6.7 h

**Q.** And the “tlag (mean)” value ([1]; lag time of K-12 MG1655, 30 g/L diacid (sodium salt))?
**A.** 8.9 h

**Q.** What about the “tlag (mean)” value ([1]; lag time of K-12 MG1655, 40 g/L diacid (sodium salt)) of the same compound?
**A.** 13.4 h

**Q.** And the “tlag (mean)” value ([1]; lag time of K-12 MG1655, 50 g/L diacid (sodium salt))?
**A.** 22.4 h

**Q.** What about the “tlag (mean)” value ([1]; lag time of K-12 MG1655, 60 g/L diacid (sodium salt)) of the same compound?
**A.** 42.5 h

**Q.** What about the “growth rate μ (mean)” value ([2]; strain ADIP1-1) of the same compound?
**A.** 0.299 h⁻¹

**Q.** And the “lag time tlag (mean)” value ([2]; strain ADIP1-1)?
**A.** 16.1 h

**Q.** What about the “growth rate μ (mean)” value ([2]; strain ADIP1-9) of the same compound?
**A.** 0.290 h⁻¹

**Q.** What about the “lag time tlag (mean)” value ([2]; strain ADIP1-9) of the same compound?
**A.** 14.5 h

**Q.** What about the “growth rate μ (mean)” value ([2]; strain ADIP2-5) of the same compound?
**A.** 0.260 h⁻¹

**Q.** And the “lag time tlag (mean)” value ([2]; strain ADIP2-5)?
**A.** 25.5 h

**Q.** What about the “growth rate μ (mean)” value ([2]; strain ADIP2-6) of the same compound?
**A.** 0.278 h⁻¹

**Q.** And the “lag time tlag (mean)” value ([2]; strain ADIP2-6)?
**A.** 21.7 h

**Q.** And the “growth rate μ (mean)” value ([2]; strain ADIP2-10)?
**A.** 0.262 h⁻¹

**Q.** And the “lag time tlag (mean)” value ([2]; strain ADIP2-10)?
**A.** 22.0 h

**Q.** What about the “growth rate μ (mean)” value ([2]; strain ADIP3-2) of the same compound?
**A.** 0.311 h⁻¹

**Q.** What about the “lag time tlag (mean)” value ([2]; strain ADIP3-2) of the same compound?
**A.** 13.2 h

**Q.** And the “growth rate μ (mean)” value ([2]; strain ADIP3-4)?
**A.** 0.308 h⁻¹

**Q.** And the “lag time tlag (mean)” value ([2]; strain ADIP3-4)?
**A.** 12.7 h

**Q.** And the “growth rate μ (mean)” value ([2]; strain ADIP3-8)?
**A.** 0.304 h⁻¹

**Q.** And the “lag time tlag (mean)” value ([2]; strain ADIP3-8)?
**A.** 13.8 h

**Q.** What about the “growth rate μ (mean)” value ([2]; strain ADIP4-1) of the same compound?
**A.** 0.206 h⁻¹

**Q.** And the “lag time tlag (mean)” value ([2]; strain ADIP4-1)?
**A.** 15.7 h

**Q.** What about the “growth rate μ (mean)” value ([2]; strain ADIP4-8) of the same compound?
**A.** 0.228 h⁻¹

**Q.** What about the “lag time tlag (mean)” value ([2]; strain ADIP4-8) of the same compound?
**A.** 15.8 h

**Q.** And the “growth rate μ (mean)” value ([2]; strain ADIP5-2)?
**A.** 0.192 h⁻¹

**Q.** And the “lag time tlag (mean)” value ([2]; strain ADIP5-2)?
**A.** 13.5 h

**Q.** What about the “growth rate μ (mean)” value ([2]; strain ADIP5-6) of the same compound?
**A.** 0.361 h⁻¹

**Q.** What about the “lag time tlag (mean)” value ([2]; strain ADIP5-6) of the same compound?
**A.** 12.1 h

**Q.** And the “growth rate μ (mean)” value ([2]; strain ADIP6-3)?
**A.** 0.246 h⁻¹

**Q.** And the “lag time tlag (mean)” value ([2]; strain ADIP6-3)?
**A.** 14.9 h

**Q.** And the “growth rate μ (mean)” value ([2]; strain ADIP6-9)?
**A.** 0.210 h⁻¹

**Q.** What about the “lag time tlag (mean)” value ([2]; strain ADIP6-9) of the same compound?
**A.** 18.4 h

**Q.** What about the “growth rate μ (mean)” value ([2]; strain ADIP6-10) of the same compound?
**A.** 0.285 h⁻¹

**Q.** And the “lag time tlag (mean)” value ([2]; strain ADIP6-10)?
**A.** 12.4 h

**Q.** And the “growth rate μ (mean)” value ([2]; strain ADIP7-2)?
**A.** 0.294 h⁻¹

**Q.** And the “lag time tlag (mean)” value ([2]; strain ADIP7-2)?
**A.** 12.5 h

**Q.** What about the “growth rate μ (mean)” value ([2]; strain ADIP7-5) of the same compound?
**A.** 0.274 h⁻¹

**Q.** What about the “lag time tlag (mean)” value ([2]; strain ADIP7-5) of the same compound?
**A.** 12.4 h

**Q.** And the “growth rate μ (mean)” value ([2]; strain ADIP8-3)?
**A.** 0.146 h⁻¹

**Q.** What about the “lag time tlag (mean)” value ([2]; strain ADIP8-3) of the same compound?
**A.** 22.1 h

**Q.** And the “growth rate μ (mean)” value ([2]; strain ADIP8-7)?
**A.** 0.163 h⁻¹

**Q.** And the “lag time tlag (mean)” value ([2]; strain ADIP8-7)?
**A.** 23.2 h

**Q.** What about the “growth rate μ (mean)” value ([2]; strain ADIP8-10) of the same compound?
**A.** 0.131 h⁻¹

**Q.** What about the “lag time tlag (mean)” value ([2]; strain ADIP8-10) of the same compound?
**A.** 20.0 h

**Q.** What about the “growth rate μ (mean)” value ([2]; strain GLUT1-3) of the same compound?
**A.** 0.231 h⁻¹

**Q.** What about the “lag time tlag (mean)” value ([2]; strain GLUT1-3) of the same compound?
**A.** 14.5 h

**Q.** And the “growth rate μ (mean)” value ([2]; strain GLUT1-9)?
**A.** 0.194 h⁻¹

**Q.** What about the “lag time tlag (mean)” value ([2]; strain GLUT1-9) of the same compound?
**A.** 20.8 h

**Q.** And the “growth rate μ (mean)” value ([2]; strain GLUT1-10)?
**A.** 0.246 h⁻¹

**Q.** And the “lag time tlag (mean)” value ([2]; strain GLUT1-10)?
**A.** 20.0 h

**Q.** And the “growth rate μ (mean)” value ([2]; strain GLUT2-1)?
**A.** 0.232 h⁻¹

**Q.** And the “lag time tlag (mean)” value ([2]; strain GLUT2-1)?
**A.** 14.7 h

**Q.** What about the “growth rate μ (mean)” value ([2]; strain GLUT2-9) of the same compound?
**A.** 0.213 h⁻¹

**Q.** And the “lag time tlag (mean)” value ([2]; strain GLUT2-9)?
**A.** 14.4 h

**Q.** What about the “growth rate μ (mean)” value ([2]; strain GLUT2-10) of the same compound?
**A.** 0.277 h⁻¹

**Q.** What about the “lag time tlag (mean)” value ([2]; strain GLUT2-10) of the same compound?
**A.** 13.4 h

**Q.** What about the “growth rate μ (mean)” value ([2]; strain GLUT3-5) of the same compound?
**A.** 0.242 h⁻¹

**Q.** What about the “lag time tlag (mean)” value ([2]; strain GLUT3-5) of the same compound?
**A.** 16.1 h

**Q.** What about the “growth rate μ (mean)” value ([2]; strain GLUT3-7) of the same compound?
**A.** 0.235 h⁻¹

**Q.** And the “lag time tlag (mean)” value ([2]; strain GLUT3-7)?
**A.** 15.3 h

**Q.** What about the “growth rate μ (mean)” value ([2]; strain GLUT3-9) of the same compound?
**A.** 0.221 h⁻¹

**Q.** And the “lag time tlag (mean)” value ([2]; strain GLUT3-9)?
**A.** 20.6 h

**Q.** What about the “growth rate μ (mean)” value ([2]; strain GLUT4-1) of the same compound?
**A.** 0.263 h⁻¹

**Q.** And the “lag time tlag (mean)” value ([2]; strain GLUT4-1)?
**A.** 16.3 h

**Q.** What about the “growth rate μ (mean)” value ([2]; strain GLUT4-4) of the same compound?
**A.** 0.242 h⁻¹

**Q.** And the “lag time tlag (mean)” value ([2]; strain GLUT4-4)?
**A.** 16.6 h

**Q.** What about the “growth rate μ (mean)” value ([2]; strain GLUT4-10) of the same compound?
**A.** 0.231 h⁻¹

**Q.** And the “lag time tlag (mean)” value ([2]; strain GLUT4-10)?
**A.** 15.7 h

**Q.** And the “growth rate μ (mean)” value ([2]; strain GLUT5-4)?
**A.** 0.281 h⁻¹

**Q.** What about the “lag time tlag (mean)” value ([2]; strain GLUT5-4) of the same compound?
**A.** 17.0 h

**Q.** What about the “growth rate μ (mean)” value ([2]; strain GLUT5-5) of the same compound?
**A.** 0.264 h⁻¹

**Q.** And the “lag time tlag (mean)” value ([2]; strain GLUT5-5)?
**A.** 18.4 h

**Q.** And the “growth rate μ (mean)” value ([2]; strain GLUT5-9)?
**A.** 0.244 h⁻¹

**Q.** And the “lag time tlag (mean)” value ([2]; strain GLUT5-9)?
**A.** 18.4 h

**Q.** What about the “growth rate μ (mean)” value ([2]; strain GLUT6-4) of the same compound?
**A.** 0.241 h⁻¹

**Q.** What about the “lag time tlag (mean)” value ([2]; strain GLUT6-4) of the same compound?
**A.** 14.2 h

**Q.** What about the “growth rate μ (mean)” value ([2]; strain GLUT6-5) of the same compound?
**A.** 0.243 h⁻¹

**Q.** And the “lag time tlag (mean)” value ([2]; strain GLUT6-5)?
**A.** 13.9 h

**Q.** And the “growth rate μ (mean)” value ([2]; strain GLUT6-10)?
**A.** 0.211 h⁻¹

**Q.** What about the “lag time tlag (mean)” value ([2]; strain GLUT6-10) of the same compound?
**A.** 14.4 h

**Q.** And the “growth rate μ (mean)” value ([2]; strain GLUT7-2)?
**A.** 0.223 h⁻¹

**Q.** What about the “lag time tlag (mean)” value ([2]; strain GLUT7-2) of the same compound?
**A.** 14.9 h

**Q.** And the “growth rate μ (mean)” value ([2]; strain GLUT7-6)?
**A.** 0.195 h⁻¹

**Q.** And the “lag time tlag (mean)” value ([2]; strain GLUT7-6)?
**A.** 17.8 h

**Q.** What about the “growth rate μ (mean)” value ([2]; strain GLUT7-7) of the same compound?
**A.** 0.156 h⁻¹

**Q.** What about the “lag time tlag (mean)” value ([2]; strain GLUT7-7) of the same compound?
**A.** 19.9 h

**Q.** What about the “growth rate μ (mean)” value ([2]; strain GLUT8-5) of the same compound?
**A.** 0.198 h⁻¹

**Q.** What about the “lag time tlag (mean)” value ([2]; strain GLUT8-5) of the same compound?
**A.** 16.4 h

**Q.** And the “growth rate μ (mean)” value ([2]; strain GLUT8-6)?
**A.** 0.236 h⁻¹

**Q.** And the “lag time tlag (mean)” value ([2]; strain GLUT8-6)?
**A.** 34.1 h

**Q.** And the “growth rate μ (mean)” value ([2]; strain GLUT8-9)?
**A.** 0.250 h⁻¹

**Q.** What about the “lag time tlag (mean)” value ([2]; strain GLUT8-9) of the same compound?
**A.** 38.0 h

**Q.** And the “growth rate μ (mean)” value ([2]; strain MG1655 (Table 28))?
**A.** 0.169 h⁻¹

**Q.** And the “lag time tlag (mean)” value ([2]; strain MG1655 (Table 28))?
**A.** 20.2 h

**Q.** And the “growth rate μ (mean)” value ([2]; strain MG1655 (Table 29))?
**A.** 0.143 h⁻¹

**Q.** And the “lag time tlag (mean)” value ([2]; strain MG1655 (Table 29))?
**A.** 23.8 h
